Data from PubChem BioAssay (NCI).
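How tested: cells in 96-well plates exposed to compound for 48 hours at five concentrations. TGI marks complete inhibition of growth.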

Legend:
Test in all cases: inhibition of tumour cell growth, NCI panel, 48 h
SF-539 CNS = tested on: SF-539 CNS
A498 renal = tested on: A498 renal
786-0 renal = tested on: 786-0 renal
A549 NSCLC = tested on: A549 NSCLC
CAKI-1 renal = tested on: CAKI-1 renal
SK-MEL-28 melanoma = tested on: SK-MEL-28 melanoma
DU-145 prostate = tested on: DU-145 prostate
SNB-19 CNS = tested on: SNB-19 CNS
SNB-75 CNS = tested on: SNB-75 CNS
SK-OV-3 ovarian = tested on: SK-OV-3 ovarian
MCF7 breast = tested on: MCF7 breast
MDA-MB-231 breast = tested on: MDA-MB-231 breast
HS 578T breast = tested on: HS 578T breast
HCT-116 colon = tested on: HCT-116 colon
SF-268 CNS = tested on: SF-268 CNS
CCRF-CEM leukemia = tested on: CCRF-CEM leukemia
HT29 colon = tested on: HT29 colon
SK-MEL-5 melanoma = tested on: SK-MEL-5 melanoma
IGROV1 ovarian = tested on: IGROV1 ovarian
ACHN renal = tested on: ACHN renal
HCT-15 colon = tested on: HCT-15 colon
SR leukemia = tested on: SR leukemia
SF-295 CNS = tested on: SF-295 CNS
HL-60(TB) leukemia = tested on: HL-60(TB) leukemia
NCI-H226 lung = tested on: NCI-H226 lung
MALME-3M melanoma = tested on: MALME-3M melanoma
NCI-H23 lung = tested on: NCI-H23 lung
UACC-257 melanoma = tested on: UACC-257 melanoma
T-47D breast = tested on: T-47D breast
EKVX NSCLC = tested on: EKVX NSCLC
OVCAR-8 ovarian = tested on: OVCAR-8 ovarian
TK-10 renal = tested on: TK-10 renal
LOX IMVI melanoma = tested on: LOX IMVI melanoma
PC-3 prostate = tested on: PC-3 prostate
NCI-H522 lung = tested on: NCI-H522 lung
BT-549 breast = tested on: BT-549 breast
SW-620 colon = tested on: SW-620 colon
NCI-H460 lung = tested on: NCI-H460 lung
UO-31 renal = tested on: UO-31 renal
COLO 205 colon = tested on: COLO 205 colon
HCC-2998 colon = tested on: HCC-2998 colon
KM12 colon = tested on: KM12 colon
MOLT-4 leukemia = tested on: MOLT-4 leukemia
HOP-62 NSCLC = tested on: HOP-62 NSCLC
MDA-MB-435 = tested on: MDA-MB-435
MDA-N = tested on: MDA-N
UACC-62 melanoma = tested on: UACC-62 melanoma
M14 melanoma = tested on: M14 melanoma
SN12C renal = tested on: SN12C renal
RPMI-8226 leukemia = tested on: RPMI-8226 leukemia
K-562 leukemia = tested on: K-562 leukemia
HOP-92 NSCLC = tested on: HOP-92 NSCLC
OVCAR-4 ovarian = tested on: OVCAR-4 ovarian
RXF 393 renal = tested on: RXF 393 renal
SK-MEL-2 melanoma = tested on: SK-MEL-2 melanoma
U251 CNS = tested on: U251 CNS
OVCAR-3 ovarian = tested on: OVCAR-3 ovarian
OVCAR-5 ovarian = tested on: OVCAR-5 ovarian
NCI/ADR-RES ovarian = tested on: NCI/ADR-RES ovarian

`COc1cccc(C=C2N=C(c3ccccc3)N(n3c(-c4ccccc4)nc4ccccc4c3=O)C2=O)c1` was tested, and the TGI (SF-539 CNS) was > 100 µM, the TGI (A498 renal) was > 100 µM and the TGI (786-0 renal) was > 100 µM. The TGI (A549 NSCLC) was > 100 µM, the TGI (CAKI-1 renal) was > 100 µM and the TGI (SK-MEL-28 melanoma) was > 100 µM. For the same molecule, the TGI (DU-145 prostate) was > 100 µM, the TGI (SNB-19 CNS) was > 100 µM and the TGI (SNB-75 CNS) was > 100 µM. The TGI (SK-OV-3 ovarian) was > 100 µM, the TGI (MCF7 breast) was > 100 µM and the TGI (MDA-MB-231 breast) was > 100 µM. The TGI (HS 578T breast) was > 100 µM, the TGI (HCT-116 colon) was > 100 µM and the TGI (SF-268 CNS) was > 100 µM. The TGI (CCRF-CEM leukemia) was > 100 µM, the TGI (HT29 colon) was > 100 µM and the TGI (SK-MEL-5 melanoma) was > 100 µM. For the same molecule, the TGI (IGROV1 ovarian) was > 100 µM, the TGI (ACHN renal) was > 100 µM and the TGI (HCT-15 colon) was > 100 µM. For the same molecule, the TGI (SR leukemia) was > 100 µM, the TGI (SF-295 CNS) was > 100 µM and the TGI (HL-60(TB) leukemia) was 59.2 µM. The TGI (NCI-H226 lung) was > 100 µM, the TGI (MALME-3M melanoma) was > 100 µM and the TGI (NCI-H23 lung) was > 100 µM. The TGI (UACC-257 melanoma) was > 100 µM, the TGI (T-47D breast) was > 100 µM and the TGI (EKVX NSCLC) was > 100 µM. The TGI (OVCAR-8 ovarian) was > 100 µM, the TGI (TK-10 renal) was > 100 µM and the TGI (LOX IMVI melanoma) was > 100 µM. The TGI (PC-3 prostate) was > 100 µM, the TGI (NCI-H522 lung) was 62.1 µM and the TGI (BT-549 breast) was > 100 µM. The TGI (SW-620 colon) was > 100 µM, the TGI (NCI-H460 lung) was > 100 µM and the TGI (UO-31 renal) was > 100 µM. For the same molecule, the TGI (COLO 205 colon) was > 100 µM, the TGI (HCC-2998 colon) was > 100 µM and the TGI (KM12 colon) was > 100 µM. The TGI (MOLT-4 leukemia) was > 100 µM, the TGI (HOP-62 NSCLC) was > 100 µM and the TGI (MDA-MB-435) was > 100 µM. For the same molecule, the TGI (MDA-N) was > 100 µM, the TGI (UACC-62 melanoma) was > 100 µM and the TGI (M14 melanoma) was > 100 µM. For the same molecule, the TGI (SN12C renal) was > 100 µM, the TGI (RPMI-8226 leukemia) was > 100 µM and the TGI (K-562 leukemia) was > 100 µM.
In the case of `COC(=O)C1CC23C4=C(CCC41)CCC1CN4CC(C)C(CC(OC(C)=O)C12COC(C)=O)C43O` (configuration not stated), the TGI (SF-539 CNS) is reported as > 100 µM, the TGI (A498 renal) is reported as > 100 µM and the TGI (786-0 renal) is reported as > 100 µM. For the same molecule, the TGI (A549 NSCLC) was > 100 µM, the TGI (CAKI-1 renal) was > 100 µM and the TGI (SK-MEL-28 melanoma) was > 100 µM. The TGI (DU-145 prostate) was > 100 µM, the TGI (SNB-19 CNS) was > 100 µM and the TGI (SNB-75 CNS) was > 100 µM. The TGI (SK-OV-3 ovarian) was > 100 µM, the TGI (MCF7 breast) was > 100 µM and the TGI (MDA-MB-231 breast) was > 100 µM. The TGI (HOP-92 NSCLC) was > 100000 nM, the TGI (HS 578T breast) was > 100 µM and the TGI (OVCAR-4 ovarian) was > 100 µM. For the same molecule, the TGI (HCT-116 colon) was > 100 µM, the TGI (SF-268 CNS) was > 100 µM and the TGI (CCRF-CEM leukemia) was > 100 µM. The TGI (RXF 393 renal) was > 100 µM, the TGI (HT29 colon) was > 100 µM and the TGI (SK-MEL-5 melanoma) was > 100 µM. For the same molecule, the TGI (IGROV1 ovarian) was > 100 µM, the TGI (ACHN renal) was > 100 µM and the TGI (HCT-15 colon) was > 100 µM. For the same molecule, the TGI (SF-295 CNS) was > 100 µM, the TGI (HL-60(TB) leukemia) was > 100 µM and the TGI (MALME-3M melanoma) was > 100 µM. The TGI (SK-MEL-2 melanoma) was > 100 µM, the TGI (U251 CNS) was > 100 µM and the TGI (NCI-H23 lung) was > 100 µM. For the same molecule, the TGI (UACC-257 melanoma) was > 100 µM, the TGI (T-47D breast) was > 100 µM and the TGI (EKVX NSCLC) was > 100 µM. The TGI (OVCAR-3 ovarian) was > 100 µM, the TGI (OVCAR-8 ovarian) was > 100 µM and the TGI (TK-10 renal) was > 100 µM. The TGI (LOX IMVI melanoma) was > 100 µM, the TGI (PC-3 prostate) was > 100 µM and the TGI (NCI-H522 lung) was > 100 µM. The TGI (BT-549 breast) was > 100 µM, the TGI (SW-620 colon) was > 100 µM and the TGI (NCI-H460 lung) was > 100 µM. For the same molecule, the TGI (UO-31 renal) was > 100 µM, the TGI (COLO 205 colon) was > 100 µM and the TGI (HCC-2998 colon) was > 100 µM. For the same molecule, the TGI (KM12 colon) was > 100 µM, the TGI (MOLT-4 leukemia) was > 100 µM and the TGI (HOP-62 NSCLC) was > 100 µM. The TGI (MDA-MB-435) was > 100 µM, the TGI (MDA-N) was > 100 µM and the TGI (OVCAR-5 ovarian) was > 100 µM. The TGI (UACC-62 melanoma) was > 100 µM, the TGI (M14 melanoma) was > 100 µM and the TGI (SN12C renal) was > 100 µM. The TGI (NCI/ADR-RES ovarian) was > 100 µM, the TGI (RPMI-8226 leukemia) was > 100 µM and the TGI (K-562 leukemia) was > 100 µM.
`CCCCCCNC(=S)N/N=C(\C)c1ccccn1` showed a TGI (SF-539 CNS) of 11.9 µM, a TGI (A498 renal) of 14.4 µM and a TGI (786-0 renal) of 12.1 µM. The TGI (A549 NSCLC) was 14.6 µM, the TGI (CAKI-1 renal) was 40.4 µM and the TGI (SK-MEL-28 melanoma) was 18.5 µM. The TGI (DU-145 prostate) was 30.4 µM, the TGI (SNB-19 CNS) was 21 µM and the TGI (SNB-75 CNS) was 23.9 µM. It also gave a TGI (SK-OV-3 ovarian) of 21.6 µM, a TGI (MCF7 breast) of 19 µM and a TGI (MDA-MB-231 breast) of 14.4 µM. The TGI (HOP-92 NSCLC) was 2250 nM, the TGI (HS 578T breast) was > 100 µM and the TGI (OVCAR-4 ovarian) was 34.7 µM. The TGI (HCT-116 colon) was 15.9 µM, the TGI (SF-268 CNS) was 17.8 µM and the TGI (RXF 393 renal) was 12.5 µM. For the same molecule, the TGI (HT29 colon) was 19.4 µM, the TGI (SK-MEL-5 melanoma) was 14.7 µM and the TGI (IGROV1 ovarian) was 18.4 µM. It also gave a TGI (ACHN renal) of 10 µM, a TGI (HCT-15 colon) of 21.9 µM and a TGI (SF-295 CNS) of 12.5 µM. The TGI (NCI-H226 lung) was 6.28 µM, the TGI (MALME-3M melanoma) was 16.8 µM and the TGI (SK-MEL-2 melanoma) was 22.7 µM. The TGI (U251 CNS) was 14.2 µM, the TGI (NCI-H23 lung) was 18.8 µM and the TGI (UACC-257 melanoma) was 15.3 µM. For the same molecule, the TGI (T-47D breast) was 23.4 µM, the TGI (EKVX NSCLC) was 47.2 µM and the TGI (OVCAR-3 ovarian) was 21.8 µM. It also gave a TGI (OVCAR-8 ovarian) of 10.2 µM, a TGI (TK-10 renal) of 42 µM and a TGI (LOX IMVI melanoma) of 12.3 µM. It also gave a TGI (PC-3 prostate) of 24.1 µM, a TGI (NCI-H522 lung) of 19.8 µM and a TGI (BT-549 breast) of 16.8 µM. It also gave a TGI (SW-620 colon) of 19.3 µM, a TGI (NCI-H460 lung) of 8.81 µM and a TGI (UO-31 renal) of 10.9 µM. It also gave a TGI (COLO 205 colon) of 18.2 µM, a TGI (HCC-2998 colon) of 20.9 µM and a TGI (KM12 colon) of 8.97 µM. It also gave a TGI (HOP-62 NSCLC) of 14.9 µM, a TGI (MDA-MB-435) of 17.8 µM and a TGI (MDA-N) of 20.6 µM. The TGI (OVCAR-5 ovarian) was 25.9 µM, the TGI (UACC-62 melanoma) was 6.37 µM and the TGI (M14 melanoma) was 6.86 µM. It also gave a TGI (SN12C renal) of 14 µM, a TGI (NCI/ADR-RES ovarian) of 30.6 µM and a TGI (RPMI-8226 leukemia) of 9.31 µM.
